Data reported in ChEMBL document CHEMBL5625260, “Novel xanthone derivatives as potent sirtuin 2 inhibitors” (Bioorg Med Chem Lett, 2024).
Calls of active or inactive are those of the source. No cut-off for these calls is given here.

Tests used:
[1] = target: T1, NAD-dependent protein deacetylase sirtuin-2 (Homo sapiens, UniProt Q8IXJ6); experiment: Inhibition of SIRT2 (unknown origin)
T1 sequence (Q8IXJ6 whole entry): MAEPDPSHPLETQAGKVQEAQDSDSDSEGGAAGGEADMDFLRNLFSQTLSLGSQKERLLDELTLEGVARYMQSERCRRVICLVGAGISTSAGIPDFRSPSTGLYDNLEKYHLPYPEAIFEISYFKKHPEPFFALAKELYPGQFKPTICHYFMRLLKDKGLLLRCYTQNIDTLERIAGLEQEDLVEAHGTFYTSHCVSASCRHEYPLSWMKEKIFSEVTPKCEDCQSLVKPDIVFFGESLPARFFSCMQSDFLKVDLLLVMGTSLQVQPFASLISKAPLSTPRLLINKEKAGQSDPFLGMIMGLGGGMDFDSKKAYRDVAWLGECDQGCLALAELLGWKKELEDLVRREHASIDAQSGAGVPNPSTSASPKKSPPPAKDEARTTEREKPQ

[2] = target: T2, NAD-dependent protein deacetylase sirtuin-1 (Homo sapiens) (UniProt Q96EB6); experiment: Activation of SIRT1 (unknown origin) at 50 uM relative to control
T2 sequence (whole entry): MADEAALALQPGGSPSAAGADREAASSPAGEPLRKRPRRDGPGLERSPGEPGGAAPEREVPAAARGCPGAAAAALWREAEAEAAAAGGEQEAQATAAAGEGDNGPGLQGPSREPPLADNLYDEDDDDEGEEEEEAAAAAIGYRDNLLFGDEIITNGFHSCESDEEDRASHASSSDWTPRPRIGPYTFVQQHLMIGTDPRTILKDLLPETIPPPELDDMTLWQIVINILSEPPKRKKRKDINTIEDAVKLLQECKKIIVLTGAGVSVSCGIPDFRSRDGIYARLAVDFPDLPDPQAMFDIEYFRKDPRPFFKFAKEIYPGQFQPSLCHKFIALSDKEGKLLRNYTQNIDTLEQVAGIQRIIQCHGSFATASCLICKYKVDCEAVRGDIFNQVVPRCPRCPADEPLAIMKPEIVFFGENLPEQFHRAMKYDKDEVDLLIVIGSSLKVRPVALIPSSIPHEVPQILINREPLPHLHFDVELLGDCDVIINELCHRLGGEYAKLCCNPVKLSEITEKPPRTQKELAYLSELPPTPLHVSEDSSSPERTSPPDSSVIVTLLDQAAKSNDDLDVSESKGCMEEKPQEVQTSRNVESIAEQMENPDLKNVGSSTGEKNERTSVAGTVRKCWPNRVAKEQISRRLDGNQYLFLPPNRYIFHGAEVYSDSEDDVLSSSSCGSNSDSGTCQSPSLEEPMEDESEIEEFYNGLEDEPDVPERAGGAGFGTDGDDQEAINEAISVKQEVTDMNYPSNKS

[3] = target: T3, NAD-dependent protein deacetylase sirtuin-2 (Homo sapiens) (UniProt Q8IXJ6); experiment: Inhibition of SIRT2 (unknown origin) at 50 uM relative to control
T3 sequence (whole entry): T1 sequence (Q8IXJ6 whole entry)

[4] = target: T4, NAD-dependent protein deacetylase sirtuin-1 (Homo sapiens, UniProt Q96EB6); experiment: Activation of N-terminal His-tagged recombinant human SIRT1 (193 to end residues) expressed in baculovirus infected Sf9 insect cells incubated for 15 to 45 mins by luminescence based assay
T4 sequence (Q96EB6 whole entry): T2 sequence (whole entry)

[5] = Antioxidant activity of compound at 500 uM by DPPH assay relative to control; format: functional
[6] = Antioxidant activity of compound at 150 to 1000 uM by DPPH assay; format: functional; settings: dose 150-1000 µM
[7] = target: T4, NAD-dependent protein deacetylase sirtuin-1; experiment: Inhibition of AMC-conjugated recombinant human SIRT1 (379 to 382 residues) using […] substrate incubated for 45 mins by fluorescence based assay
[8] = target: T5, NAD-dependent protein deacetylase sirtuin-3, mitochondrial (Homo sapiens, UniProt Q9NTG7); experiment: Inhibition of AMC-conjugated recombinant human SIRT3 ( 317 to 320 residues) using […] substrate incubated for 45 mins by fluorescence based assay
T5 sequence (Q9NTG7 whole entry): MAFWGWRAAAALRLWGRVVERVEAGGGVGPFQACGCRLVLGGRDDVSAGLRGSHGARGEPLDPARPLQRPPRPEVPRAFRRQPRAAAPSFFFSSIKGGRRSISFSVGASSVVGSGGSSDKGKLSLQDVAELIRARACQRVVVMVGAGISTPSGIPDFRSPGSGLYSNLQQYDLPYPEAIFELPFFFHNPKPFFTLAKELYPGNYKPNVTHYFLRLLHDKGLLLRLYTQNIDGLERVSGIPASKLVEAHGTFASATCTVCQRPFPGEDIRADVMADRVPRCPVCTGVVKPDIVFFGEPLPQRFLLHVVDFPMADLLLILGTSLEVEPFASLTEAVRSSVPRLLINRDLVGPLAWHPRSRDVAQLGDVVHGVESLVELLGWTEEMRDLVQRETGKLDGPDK

| Activity [2] [%] | inhibition [3] [%] | SMILES | Activity [6] | further results |
| --- | --- | --- | --- | --- |
|  |  | Cc1ccc(C(=O)Nc2ccc(S(=O)(=O)O)c3cc(S(=O)(=O)O)cc(S(=O)(=O)O)c23)cc1NC(=O)c1cccc(NC(=O)Nc2cccc(C(=O)Nc3cc(C(=O)Nc4ccc(S(=O)(=O)O)c5cc(S(=O)(=O)O)cc(S(=O)(=O)O)c45)ccc3C)c2)c1 [SURAMIN] |  | IC50 [1]: 24 µM |
| -12.4 | 55.9 | COc1ccc(OC)c(CN2CCN(Cc3ccc4oc5c(Cl)cccc5c(=O)c4c3)CC2)c1 |  |  |
|  |  | CC(C)=CCc1c(O)c(CC=C(C)C)c2oc3c(O)ccc(O)c3c(=O)c2c1O [GARTANIN] |  | EC50 [4]: 1.79 µM |
| -117 | 48.5 | COc1cccc(N2CCN(Cc3ccc4oc5c(Cl)cccc5c(=O)c4c3)CC2)c1 | inactive | Activity [5]: 17.9% |
|  | 83 | Oc1ccc(/C=C/c2cc(O)cc(O)c2)cc1 |  | Activity ([2]; filed as activator): 96.6% |
| -10.3 | 82.1 | COc1ccccc1CNCc1ccc2oc3c(Cl)cccc3c(=O)c2c1 | inactive |  |
| -22.1 | 93.2 | COc1ccccc1CCNCc1ccc2oc3c(Cl)cccc3c(=O)c2c1 | inactive |  |
| -17.1 | 49.5 | COc1ccccc1N1CCN(Cc2ccc3oc4c(Cl)cccc4c(=O)c3c2)CC1 | inactive |  |
|  |  | CC(C)=CCc1c(O)cc2oc3cc(O)c(O)c(CC=C(C)C)c3c(=O)c2c1O |  | IC50 [7]: 22.4 µM; IC50 [8]: 26.8 µM |
| -19.5 | 82.7 | COc1ccc(CNCc2ccc3oc4c(Cl)cccc4c(=O)c3c2)cc1OC | inactive |  |
